Reference: ChEMBL document CHEMBL3430912, “GSK Tres Cantos Anti-Kinetoplastid Screening (TCAKS) Data”

Legend:
[1] = target: Sterol 14-alpha demethylase (Trypanosoma cruzi (strain CL Brener), UniProt Q7Z1V1); experiment: GSK_TCAKS: pIC50 CYP51 from Trypanosoma cruzi.; format: functional
[2] = test system: Trypanosoma cruzi; experiment: GSK_TCAKS: pIC50 Trypanosoma cruzi Imaging: Amastigotes/Cell. […] Cells were then washed once with PBS before infection. T. cruzi trypomastigotes, collected at days 5 to 8 after infection from LLC-MK2 parasite infected cultures, were allowed to swim out for 4h at 37C from a centrifuged pellet (2,500 rpm/10 min/room temperature). Trypomastigotes were then collected and counted in a CASY Cell Counter. Trypomastigotes, in supplemented DMEM, were added to H9c2 cultures in a multiplicity of infection of 1 and incubated for 18 h. Cells were washed once with PBS before incubation of the infected H9c2 monolayer with trypsin (Life-Technologies) to detach cells from the flask. Cells were counted in a CASY Cell Counter using a 150 um capillary and their density set at 5 * 10^4 cells per mL in supplemented assay DMEM. Infected H9c2 were dispensed into 384-well poly-lysine coated assay plates at 50uL per well using a Multidrop Combi dispenser. After seeding them, the plates were incubated at 37C, 5% CO2 for 72h. Cultures were then fixed and stained by addition of 50 uL of a solution containing 8% formaldehyde and 4 uM DRAQ5 DNA dye (BioStatus, UK) per well. […] Five images were collected per well for reliable statistical analysis. Automated image analysis was performed with a script developed on Acapella High Content Imaging and Analysis Software (PerkinElmer). Output: number of amastigotes per cell as infection level measurement.; format: functional, organism-based, Rattus norvegicus; details: H9c2, 4 h
[3] = test system: Trypanosoma cruzi; experiment: (§1) GSK_TCAKS: pIC50 Trypanosoma cruzi Imaging: Infected Cells. […] Cells were then washed once with PBS before infection. T. cruzi trypomastigotes, collected at days 5 to 8 after infection from LLC-MK2 parasite infected cultures, were allowed to swim out for 4h at 37C from a centrifuged pellet (2,500 rpm/10 min/room temperature). Trypomastigotes were then collected and counted in a CASY Cell Counter. Trypomastigotes, in supplemented DMEM, were added to H9c2 cultures in a multiplicity of infection of 1 and incubated for 18 h. Cells were washed once with PBS before incubation of the infected H9c2 monolayer with trypsin (Life-Technologies) to detach cells from the flask. Cells were counted in a CASY Cell Counter using a 150 um capillary and their density set at 5 * 10^4 cells per mL in supplemented assay DMEM. Infected H9c2 were dispensed into 384-well poly-lysine coated assay plates at 50uL per well using a Multidrop Combi dispenser. After seeding them, the plates were incubated at 37C, 5% CO2 for 72h. Cultures were then fixed and stained by addition of 50 uL of a solution containing 8% formaldehyde and 4 uM DRAQ5 DNA dye (BioStatus, UK) per well. […] Five images were collected per well for reliable statistical analysis. Automated image analysis was performed with a script developed on Acapella High Content Imaging and Analysis Software (PerkinElmer). Output: percentage of infected cells per well as a second infection marker.; format: functional, organism-based, Rattus norvegicus; details: H9c2, 4 h
[4] = test system: Trypanosoma brucei brucei; experiment: GSK_TCAKS: pIC50 Trypanosoma brucei viability assay using luminiscence. Assay plates (1536-well) were prepared. T. brucei cultures were harvested and counted in a CASY cell counter. A parasite suspension was prepared at a final concentration of 5 * 10^4 cells/mL in complete HMI9 medium and 6uL was dispensed to all wells containing compounds using a Multidrop Combi dispenser. 6uL of HMI9 media with 0.4% DMSO were dispensed to control columns. Plates were incubated for 24 h at 37C, 5% CO2 then tempered for 10 min at room temperature. ATP content was quantified by adding 4 uL of CellTiter-Glo Reagent (Promega) according to the manufacturer's instructions. Luminescence was measured using a ViewLux.; format: functional, organism-based; details: Lister 427, CASY
[5] = test system: Leishmania donovani; experiment: (§2) GSK_TCAKS: pIC50 Leishmania donovani Imaging: THP-1 Host Macrophages. Assay plates (384-well) were prepared by adding 250nL of compound to each well. For single shot assay, the final compound concentration was 5 uM. […] Automated image analysis was performed with a script developed on Acapella High Content Imaging and Analysis Software (PerkinElmer). Output: THP-1 cell count were reported for each well.; format: functional, organism-based, Homo sapiens
[6] = test system: Trypanosoma cruzi; experiment: as §1, with “H2C9” for “Trypanosoma cruzi”, “H9c2 Host Cardiomyocytes.” for “Infected Cells.”, “Number” for “percentage”, “H9c2 Host Cardiomyocytes nuclei to determine drug-related cytotoxicity.” for “infected cells per well as a second infection marker.”; format: functional, organism-based, Rattus norvegicus; details: H9c2, 4 h
[7] = test system: Trypanosoma cruzi; experiment: GSK_TCAKS: pIC50 Trypanosoma cruzi viability assay using beta-GAL activity. This assay was run at single shot at 5uM compound concentration per well. The biological reagents consisted of NIH-3T3 host cells and trypomastigotes parasitic cells; both cell types were set to a 3.3 * 10^5 cells/mL dilution in assay DMEM by means of a CASY cell counter device using a 60um capillary. 6 uL of the mixture were dispensed per well (about 1 * 10^3 host-cells and 1 * 10^3 parasites) with a Multidrop Combi dispenser. […] In all wells, the percentage of DMSO never exceeded 0.5%. Plates incubated for four days at 37C, 5% CO2. The substrate used for the assay fluorescence intensity (FLINT) readout was resorufin-beta-D-galactopiranoside (Sigma-Aldrich) at 5uM per well. It was diluted in PBS supplemented with the soft detergent Igepal (Fluka).; format: functional, organism-based, Mus musculus; details: Tulahuen, NIH3T3
[8] = test system: Leishmania donovani; experiment: GSK_TCAKS: pIC50 Leishmania donovani viability assay using fluorescence intensity. Assay plates (1536-well) were prepared by adding 30nL per well of compound. For single shot assay, the final compound concentration was 5uM. […] Briefly, eGFP LdBOB axenic amastigotes were harvested, fixed and counted in a CASY cell counter (Roche-Applied Science). A final concentration of 1.5 * 10^5 cells per well were prepared in amastigote media containing 500 U/mL penicillin/streptomycin (Invitrogen) and 6uL was dispensed to each experimental well using a Multidrop Combi dispenser (Thermo Scientific). 6uL of assay media was dispensed to control columns used as reference for 100% compound response. Following incubation for 72 h at 37C, 5% CO2, 2 uL of resazurin was added to each well at a final concentration of 0.5 mM in phosphate buffered saline (PBS) with IGEPAL (Sigma-Aldrich), 0.05% (v/v).; format: functional, organism-based
[9] = GSK_TCAKS: pIC50 HepG2 human cell line viability assay using luminiscence. […] Seeding density was checked to ensure that new mono-layers were not more than 50% confluent at the time of harvesting. Cell suspension was added to 500 mL of the same medium at a final density of 1.2 * 10^5 cells/mL. This cell suspension was dispensed (25 uL, 3000 cells per well) into 384-well clear-bottom plates using a Multidrop Combi dispenser. Prior to addition of the cell suspension, the screening compounds (250 nL) were pre-dispensed into the plates with an Echo liquid handler. Plates were incubated for 48 h at 37C, 5% CO2. After incubation, plates equilibrated at room temperature for 30 min before proceeding to develop the luminescent signal. The signal developer, CellTiter-Glo Reagent, was allowed to equilibrate at room temperature for 30 min and added to the plates (25uL per well) using a Multidrop Combi dispenser. Plates were left for 10 min at room temperature for stabilization and then read using a ViewLux.; format: toxicity, cell-based
[10] = test system: Leishmania donovani; experiment: as §2, with “Amastigotes/Macrophages.” for “THP-1 Host Macrophages.”, “Average number of amastigotes per macrophage” for “THP-1”, “cell” for “cell count”; format: functional, organism-based, Homo sapiens; details: THP-1
[11] = test system: NIH3T3; experiment: GSK_TCAKS: pIC50 NIH 3T3 cell line viability assay using luminiscence. Tissue culture surface treated assay plates (1536-well) were used. […] The 100% cells survival control was determined exposing the host-cells to a 0.5% DMSO concentration, whereas the 100% toxicity control was achieved by seeding the cells in presence of Amphotericin B at 50uM. Plates were incubated for four days at 37C, 5% CO2. The assay readout was developed by addition of 5uL of CellTiter-Glo Reagent following the manufacturer's instructions. Luminiscence was measured using a ViewLux.; format: functional, cell-based; details: Mus musculus, NIH3T3, 96 h
[12] = test system: Trypanosoma brucei brucei; experiment: GSK_TCAKS: pIC50 Trypanosoma brucei viability assay using fluorescence intensity. Assay plates (1536-well) were prepared by dispensing 25nL of compound solution per well using an Echo acoustic dispenser (Labcyte).; format: functional, organism-based; details: Lister 427, 2 h
[13] = test system: Leishmania donovani; experiment: as §2, with “Infected” for “THP-1 Host”, “Percent of infected macrophage cells” for “THP-1 cell count”; format: functional, organism-based, Homo sapiens; details: THP-1

Chain of Sterol 14-alpha demethylase (Q7Z1V1 whole entry): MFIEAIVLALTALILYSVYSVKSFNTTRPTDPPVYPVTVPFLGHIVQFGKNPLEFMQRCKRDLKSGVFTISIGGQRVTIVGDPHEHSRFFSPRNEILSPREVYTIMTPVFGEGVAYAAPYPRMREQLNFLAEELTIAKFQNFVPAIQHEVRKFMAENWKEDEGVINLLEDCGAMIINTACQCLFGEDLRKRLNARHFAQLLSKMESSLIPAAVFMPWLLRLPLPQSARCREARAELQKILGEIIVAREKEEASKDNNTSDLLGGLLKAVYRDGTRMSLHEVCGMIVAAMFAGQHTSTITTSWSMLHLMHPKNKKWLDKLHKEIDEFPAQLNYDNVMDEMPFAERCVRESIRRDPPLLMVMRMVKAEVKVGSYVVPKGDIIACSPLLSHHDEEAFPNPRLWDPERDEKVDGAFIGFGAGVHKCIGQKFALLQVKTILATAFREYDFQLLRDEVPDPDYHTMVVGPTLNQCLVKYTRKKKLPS

SMILES	IC50 [1]	IC50 [2]	IC50 [3]	IC50 [4]	IC50 [5]	IC50 [6]	IC50 [7]	IC50 [8]	IC50 at 48 h [9]	IC50 [10]	IC50 [11]	IC50 [12]	IC50 [13]
O=C(c1ccc(OCCCc2cnc[nH]2)cc1)C1CC1	50.1 nM	1260 nM	1580 nM	> 39.8 µM	> 50.1 µM	> 50.1 µM	355 nM	> 50.1 µM	> 100 µM	7.94 µM	12.6 µM	10 µM	> 50.1 µM
Cc1cc(C)c(C#N)c(SCC(=O)c2ccc3c(c2)OCO3)n1	> 100000 nM	398 nM	794 nM	15.8 µM	> 50.1 µM	> 50.1 µM	2000 nM	> 50.1 µM	> 100 µM	> 50.1 µM	> 50.1 µM	20 µM	> 50.1 µM
Cc1cc(N(C)C)nc2ccc(Cc3cnc(N)nc3N)cc12	> 100000 nM	3160 nM	6310 nM	5.01 µM	39.8 µM	> 50.1 µM	1260 nM	> 50.1 µM	31.6 µM	39.8 µM	10 µM	5.01 µM	31.6 µM
Cc1cc(Br)cc(C(=O)c2c(C(C)C)c(=O)[nH]c(=O)n2Cc2ccnc(N)c2)c1	15.8 nM	251 nM	316 nM	25.1 µM	39.8 µM	> 50.1 µM	398 nM	> 50.1 µM	> 100 µM	20 µM	15.8 µM	12.6 µM	31.6 µM
Clc1ccc(CN2CCN(C3=NCCN3)CC2)cc1Cl	> 100000 nM	1000 nM	10000 nM	> 39.8 µM	> 50.1 µM	> 50.1 µM	1260 nM	> 50.1 µM	63.1 µM	> 50.1 µM	39.8 µM	> 39.8 µM	> 50.1 µM
CCCc1nc2nc(N)nc(N)c2cc1CC	> 100000 nM	79.4 nM	316 nM	25.1 µM	> 50.1 µM	12.6 µM	355 nM	2 µM	20 µM	39.8 µM	31.6 µM	20 µM	39.8 µM
N#Cc1c(Oc2cccc(Cl)c2)cccc1[N+](=O)[O-]	> 100000 nM	126 nM	631 nM	0.00501 µM	> 50.1 µM	15.8 µM	316 nM	7.94 µM	25.1 µM	7.94 µM	20 µM	0.00794 µM	10 µM
COc1ccccc1-c1c(C)[nH]c2nc(N)nc(C)c12	> 100000 nM	126 nM	251 nM	> 39.8 µM	> 50.1 µM	> 50.1 µM	178 nM	12.6 µM	> 100 µM	15.8 µM	> 50.1 µM	25.1 µM	25.1 µM
O=C(NCC1CCCCC1)c1cnns1	> 100000 nM	2000 nM	3160 nM	1.26 µM	> 50.1 µM	> 50.1 µM	2510 nM	12.6 µM	39.8 µM	10 µM	> 50.1 µM	1 µM	> 50.1 µM
O=C1CN(C2CCCc3c(OCc4ccncc4)cccc32)C(=O)N1C1CCCCC1 (stereo not drawn)	20 nM	12.6 nM	15.8 nM	> 39.8 µM	> 50.1 µM	> 50.1 µM	251 nM	> 50.1 µM	> 100 µM	> 50.1 µM	> 50.1 µM	15.8 µM	> 50.1 µM
Cc1cccc(NS(=O)(=O)c2ccc3c(c2)C(=O)c2cc(S(=O)(=O)Nc4cccc(C)c4C)ccc2-3)c1C	> 100000 nM	398 nM	398 nM	10 µM	> 50.1 µM	31.6 µM	398 nM	> 50.1 µM	> 100 µM	> 50.1 µM	> 50.1 µM	7.94 µM	> 50.1 µM
O=C(Cn1cnc([N+](=O)[O-])n1)Nc1ccc(Cl)cc1C(=O)c1ccccc1	10000 nM	316 nM	1260 nM	31.6 µM	> 50.1 µM	> 50.1 µM	251 nM	> 50.1 µM	> 100 µM	> 50.1 µM	> 50.1 µM	20 µM	> 50.1 µM
N#Cc1ccc(S(=O)(=O)N2CCN(Cc3cccc(-c4ccncc4)c3)CC2)cc1	79.4 nM	200 nM	251 nM	20 µM	> 50.1 µM	25.1 µM	398 nM	> 50.1 µM	> 100 µM	1.26 µM	12.6 µM	> 39.8 µM	> 50.1 µM
CN(C)Cc1ccc(N2CCC(NS(=O)(=O)c3ccc(Cl)cc3)CC2)cc1	> 100000 nM	251 nM	316 nM	31.6 µM	25.1 µM	12.6 µM	794 nM	39.8 µM	50.1 µM	25.1 µM	15.8 µM	25.1 µM	> 50.1 µM
Oc1nccc2ccc(-c3ccncc3)cc12	15.8 nM	251 nM	251 nM	> 39.8 µM	39.8 µM	> 50.1 µM	200 nM	> 50.1 µM	> 100 µM	20 µM	> 50.1 µM	31.6 µM	> 50.1 µM
CNc1cc(Cn2c(C(=O)c3cc(C)cc(Cl)c3)c(C(C)C)c(=O)[nH]c2=O)ccn1	31.6 nM	20 nM	20 nM	25.1 µM	> 50.1 µM	> 50.1 µM	39.8 nM	> 50.1 µM	> 100 µM	12.6 µM	10 µM	25.1 µM	20 µM
